The IC50 is the point on the concentration scale where inhibition reaches its midpoint.

The test concerns the target phosphodiesterase 4. The test can be described thus: Phosphodiesterase 4 inhibition, SPA with enzyme preparation from human PMNL. To be noted: cytosolic PDE4 from human PMNL, 0.5 μM [3H]-cAMP, 37° C., 30 minutes; read-out: PDE 4 inhibition IC50. The format is biochemical. As to the method: PDE4 activity is determined using enzyme preparations from human polymorphonuclear […] (PMNL). Human blood (buffy coats) was anticoagulated with citrate. A centrifugation at 700×g at room temperature (RT) for 20 minutes separates the platelet-rich plasma in the supernatant from the erythrocytes and leukocytes. The PMNLs for the PDE4 determination are isolated by a subsequent dextran sedimentation and in gradient centrifugation with Ficoll-Paque. After the cells have been washed twice, the erythrocytes which are still present are lysed by adding 10 ml of hypotonic buffer (155 mM NH4Cl, 10 mM NaHCO3, 0.1 mM EDTA, pH=7.4) at 4° C. within 6 minutes. The still intact PMNLs are then washed twice with PBS and lysed by ultrasound. The supernatant from a centrifugation at 4° C. and 48000×g for one hour contains the cytosolic fraction of PDE 4 and is employed for the PDE4 measurements.
The phosphodiesterase activity is assayed using a modified Amersham Pharmacia Biotech method, an SPA (scintillation proximity assay).
The reaction mixtures contain buffer (50 mM Tris-HCl (pH 7.4), 5 mM MgCl2, 100 μM cGMP), the inhibitors in variable concentrations and the appropriate enzyme preparation. The reaction is started by adding the substrate, 0.5 μM [^3H]-cAMP. The final volume is 100 μl. Test substances are made up as stock solutions in DMSO. The DMSO concentration in the reaction mixture is 1% v/v. The PDE activity is unaffected at this DMSO concentration. After the reaction has been started by adding substrate, the samples are incubated at 37° C. for 30 minutes. The reaction is stopped by adding a defined amount of SPA beads, and the samples are counted after one hour in a Beta counter. The nonspecific enzymic activity (the blank) is determined in the presence of 100 μM rolipram and subtracted from the test results. The incubation mixtures for the PDE4 assay contain 100 μM cGMP in order to inhibit any contamination by PDE 3.
In the case of `O=C(Nc1c(Cl)c[n+]([O-])cc1Cl)C(=O)c1cn(Cc2ccc(F)cc2)c2c1ccc[n+]2[O-]` [Compound 4, N-(3,5-Dichloro-1-oxopyridin-4-yl)-[1-(4-fluorobenzyl)-7-oxo-7-azaindol-3-yl]glyoxylamide], the IC50 was determined as 751 nM.

In the case of `O=C(Nc1c(Cl)cccc1Cl)C(=O)c1cn(Cc2ccccc2Cl)c2c1ccc[n+]2[O-]` [Compound 2, N-(2,6-Dichlorophenyl)-[1-(2-chlorobenzyl)-7-oxo-7-azaindol-3-yl]glyoxylamide], the IC50 turned out to be 48 nM.

As for `O=C(Nc1c(Cl)cncc1Cl)C(=O)c1cn(Cc2ccc(F)cc2)c2c1ccc[n+]2[O-]` [Compound 1, N-(3,5-Dichloropyridin-4-yl)-[1-(4-fluorobenzyl)-7-oxo-7-azaindol-3-yl]glyoxylamide], the IC50 turned out to be 52 nM.

Turning to `O=C(Nc1c(Cl)c[n+]([O-])cc1Cl)C(=O)c1cn(Cc2ccc(F)cc2)c2ncccc12` [Compound 3, N-(3,5-Dichloro-1-oxopyridin-4-yl)-[1-(4-fluorobenzyl)-7-azaindol-3-yl]glyoxylamide], the IC50 is 8 nM.

These data come from patent US7211583B2, “7-azaindoles and the use thereof as therapeutic agents” (Elbion AG, priority 2003, dated 2007).
